Results as given in ChEMBL document CHEMBL5360623, “Principles and Applications of CF2X Moieties as Unconventional Halogen Bond Donors in Medicinal Chemistry, Chemical Biology, and Drug Discovery” (J Med Chem, 2023).
pKd: −log10 of the molar value.

Assays:
[1] = target: Mitogen-activated protein kinase 10 (Homo sapiens, UniProt P53779); assay: Binding affinity to JNK3 (39 to 402 residues) (unknown origin) expressed in Escherichia coli BL21(DE3) assessed as dissociation constant by isothermal titration calorimetry assay; conditions: for pKd: read-out: Kd
[2] = target: Mitogen-activated protein kinase 8 (Homo sapiens, UniProt P45983); assay: Binding affinity to JNK1 (2 to 364 residues) (unknown origin) expressed in Escherichia coli BL21(DE3) assessed as dissociation constant by isothermal titration calorimetry assay; conditions: for pKd: read-out: Kd
[3] = Stability of the compound in PBS buffer assessed as half life at 250 uM at pH 7.4 in presence of GSH by HPLC analysis; format: physicochemical; conditions: pH 7.4, 250 µM

Sequence of Mitogen-activated protein kinase 8 (P45983 whole entry, the tested form may be a part): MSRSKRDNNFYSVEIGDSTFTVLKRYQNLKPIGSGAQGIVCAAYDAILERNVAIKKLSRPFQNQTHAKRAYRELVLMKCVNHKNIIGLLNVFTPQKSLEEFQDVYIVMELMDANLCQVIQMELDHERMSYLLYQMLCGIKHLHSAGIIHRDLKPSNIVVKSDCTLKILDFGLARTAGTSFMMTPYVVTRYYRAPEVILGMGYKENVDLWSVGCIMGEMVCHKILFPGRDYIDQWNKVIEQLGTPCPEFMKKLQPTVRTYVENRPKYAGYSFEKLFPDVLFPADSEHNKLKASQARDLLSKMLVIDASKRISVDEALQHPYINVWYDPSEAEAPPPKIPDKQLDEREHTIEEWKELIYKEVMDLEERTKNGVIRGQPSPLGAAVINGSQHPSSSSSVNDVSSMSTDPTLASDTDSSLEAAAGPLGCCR
Sequence of Mitogen-activated protein kinase 10 (P53779 whole entry, the tested form may be a part): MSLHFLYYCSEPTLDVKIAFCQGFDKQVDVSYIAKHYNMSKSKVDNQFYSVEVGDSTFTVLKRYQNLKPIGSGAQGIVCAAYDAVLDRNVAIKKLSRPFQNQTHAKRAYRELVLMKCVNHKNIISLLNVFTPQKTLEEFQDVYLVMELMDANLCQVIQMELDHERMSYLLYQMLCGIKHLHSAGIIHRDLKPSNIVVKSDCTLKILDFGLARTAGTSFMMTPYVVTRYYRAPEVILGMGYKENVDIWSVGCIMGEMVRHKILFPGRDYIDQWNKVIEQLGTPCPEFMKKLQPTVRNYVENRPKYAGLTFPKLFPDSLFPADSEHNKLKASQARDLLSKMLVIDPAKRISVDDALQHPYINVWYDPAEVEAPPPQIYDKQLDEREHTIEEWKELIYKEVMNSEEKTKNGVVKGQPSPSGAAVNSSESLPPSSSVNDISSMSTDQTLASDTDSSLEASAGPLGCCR

| Structure (SMILES) | Kd [1] | pKd [2] | pKd [1] | Kd [2] | t1/2 [3] |
| --- | --- | --- | --- | --- | --- |
| Nc1nnc(-c2ccncc2)s1 | Not Active | 3.79 | – | – | – |
| O=C(Nc1nncs1)C(F)(F)I | – | 3.98 | 3.73 | – | – |
| O=C(c1cnc2ccccn12)C(F)(F)Cl | – | < 3.00 | < 3.00 | – | – |
| O=C(Nc1ccc2c(c1)OCO2)C(F)(F)Cl | – | – | < 3.00 | Not Active | 10.8 days |
| O=C(Nc1ccc2c(c1)OCO2)C(F)F | – | – | – | – | > 50 days |
| NC(=O)Nc1ccc(OC(F)(F)Br)cc1 | – | – | – | – | 0.221 days |
| O=C(Nc1ccc2c(c1)OCO2)C(F)(F)I | Not Active | – | – | Not Active | 12.1 days |
| COC(=O)c1scc(C)c1NC(=O)C(F)(F)Cl | Not Active | – | – | Not Active | – |
| CCOC(=O)c1cnn(C)c1NC(=O)C(F)(F)Cl | Not Active | – | – | Not Active | – |
| O=C(Nc1nccs1)C(F)(F)Br | – | < 3.00 | < 3.00 | – | – |
| NC(=O)Nc1ccc(OC(F)(F)I)cc1 | – | – | – | – | 0.3 days |
| O=C(Nc1nnc(-c2ccncc2)s1)C(F)(F)Br | – | 4.82 | 4.77 | – | – |
| O=C(Nc1ccc(F)cc1)C(F)(F)Br | Not Active | – | – | Not Active | – |
| NC(=O)Nc1ccc(OC(F)F)cc1 | – | – | – | – | > 50 days |
| NC(=O)Nc1ccc(NC(=O)C(F)(F)Br)cc1 | Not Active | – | – | Not Active | – |
| CCOC(=O)c1c(NC(=O)C(F)(F)Br)sc2c1CCCC2 | Not Active | – | – | Not Active | – |
| O=C(NCCc1c[nH]c2ccccc12)C(F)(F)Cl | Not Active | – | – | Not Active | – |
| O=C(Nc1nnc(-c2ccncc2)s1)C(F)(F)I | – | 5.00 | 4.89 | – | – |
| O=C(Nc1ccc2c(c1)OCO2)C(F)(F)F | – | – | – | – | 5.42 days |
| NC(=O)Nc1ccc(OC(F)(F)Cl)cc1 | – | – | – | – | > 50 days |
| O=C(Nc1nnc(-c2ccncc2)s1)C(F)(F)Cl | – | 4.70 | 4.64 | – | – |
| O=C(Nc1ccc(O)c(O)c1)C(F)(F)Cl | Not Active | – | – | Not Active | – |
| O=C(Nc1nncs1)C(F)(F)Br | – | 3.71 | 3.61 | – | – |
| O=C(Nc1cccc2nsnc12)C(F)(F)Br | Not Active | – | – | Not Active | – |
| O=C(Nc1ccc(Cn2cncn2)cc1)C(F)(F)Br | Not Active | – | – | Not Active | – |
| O=C(Nc1nncs1)C(F)(F)Cl | – | 3.73 | 3.61 | – | – |
| O=C(Nc1nnc(-c2ccc([N+](=O)[O-])cc2)o1)C(F)(F)Br | Not Active | – | – | Not Active | – |
| O=C(c1ccco1)N1CCN(C(=O)C(F)(F)Br)CC1 | Not Active | – | – | Not Active | – |
| NC(=O)Nc1ccc(OC(F)(F)F)cc1 | – | – | – | – | > 50 days |
| O=C(Nc1ccc2c(c1)OCO2)C(F)(F)Br | – | < 3.00 | < 3.00 | – | 11.7 days |
